The supplement of paper PMC6045584
± gives the standard deviation of the averaged measurements.

Tests used:
NILOTINIB = compound: Cc1cn(-c2cc(NC(=O)c3ccc(C)c(Nc4nccc(-c5cccnc5)n4)c3)cc(C(F)(F)F)c2)cn1 [NILOTINIB]; assay: surviving fraction relative to DMSO-only wells; higher = less growth inhibition; details: exposure time: 5 days
Method in brief: (§1)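 In 384-well plates, 250–500 log-phase tumour cells per well were given 24 hours before five days of continuous exposure to inhibitors at 0.5, 1, 5, 10, 50, 100, 500 and 1000 nM. Surviving fraction is luminescence from CellTiter-Glo, normalised to the median of wells containing DMSO alone. Reading took place after 10 minutes at room temperature.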

[1] = compound: CCc1cc(Nc2nccc(-c3c(-c4ccc(OC)c(C(=O)Nc5c(F)cccc5F)c4)nc4ccccn34)n2)c(OC)cc1N1CCC(N2CCN(S(C)(=O)=O)CC2)CC1; assay: as above; details: exposure time: 5 days
Method in brief: as §1

Test System | surviving fraction (NILOTINIB; 0.5 nM) | surviving fraction (NILOTINIB; 1 nM) | surviving fraction (NILOTINIB; 5 nM) | surviving fraction (NILOTINIB; 10 nM) | surviving fraction (NILOTINIB; 50 nM) | surviving fraction (NILOTINIB; 100 nM) | surviving fraction (NILOTINIB; 500 nM) | surviving fraction (NILOTINIB; 1000 nM) | surviving fraction ([1]; 0.5 nM) | surviving fraction ([1]; 1 nM) | surviving fraction ([1]; 5 nM) | surviving fraction ([1]; 10 nM) | surviving fraction ([1]; 50 nM) | surviving fraction ([1]; 100 nM) | surviving fraction ([1]; 500 nM) | surviving fraction ([1]; 1000 nM)
SNU475 LIVER | 1.05 ± 0.028 | 1 ± 0.036 | 1.01 ± 0.031 | 1.04 ± 0.017 | 0.941 ± 0.026 | 0.939 ± 0.03 | 0.953 ± 0.024 | 0.858 ± 0.076 | 0.88 ± 0.066 | 0.966 ± 0.042 | 0.982 ± 0.024 | 0.976 ± 0.062 | 0.982 ± 0.025 | 0.956 ± 0.023 | 0.957 ± 0.054 | 0.875 ± 0.061
SKBR3 BREAST | 1.01 ± 0.13 | 1.02 ± 0.074 | 1 ± 0.037 | 0.994 ± 0.13 | 0.731 ± 0.097 | 0.826 ± 0.18 | 0.744 ± 0.061 | 0.775 ± 0.076 | 1.04 ± 0.12 | 1.06 ± 0.18 | 1.05 ± 0.057 | 0.99 ± 0.089 | 0.983 ± 0.13 | 1.01 ± 0.099 | 0.849 ± 0.082 | 0.664 ± 0.048
SCC36 HEADNECK | 1.04 ± 0.035 | 1.02 ± 0.043 | 1.06 ± 0.15 | 1.09 ± 0.046 | 0.839 ± 0.048 | 0.849 ± 0.04 | 0.74 ± 0.052 | 0.79 ± 0.038 | 0.967 ± 0.035 | 1.04 ± 0.096 | 1.11 ± 0.091 | 1.1 ± 0.072 | 1.07 ± 0.027 | 1.09 ± 0.078 | 0.887 ± 0.03 | 0.791 ± 0.024
CAL72 BONE | 1.02 ± 0.031 | 1.06 ± 0.018 | 1.03 ± 0.038 | 1.06 ± 0.018 | 0.979 ± 0.033 | 1.02 ± 0.013 | 0.969 ± 0.062 | 0.977 ± 0.06 | 1.06 ± 0.033 | 1.02 ± 0.026 | 1.03 ± 0.017 | 1.05 ± 0.025 | 1.08 ± 0.035 | 1.12 ± 0.032 | 1.13 ± 0.029 | 1.13 ± 0.033
LNCAP PROSTATE | 1.12 ± 0.083 | 1.13 ± 0.12 | 1.08 ± 0.011 | 1.01 ± 0.072 | 1.14 ± 0.076 | 1.1 ± 0.15 | 1.16 ± 0.031 | 1.03 ± 0.066 | 0.88 ± 0.064 | 0.964 ± 0.16 | 0.996 ± 0.08 | 0.849 ± 0.096 | 0.895 ± 0.15 | 0.93 ± 0.19 | 0.882 ± 0.063 | 0.632 ± 0.1
A549 LUNG | 1.06 ± 0.018 | 1.042 ± 0.01 | 1.11 ± 0.024 | 1.08 ± 0.037 | 1.1 ± 0.03 | 1.13 ± 0.045 | 1.08 ± 0.028 | 1.11 ± 0.043 | 0.954 ± 0.022 | 0.994 ± 0.045 | 0.995 ± 0.032 | 1.02 ± 0.033 | 0.983 ± 0.029 | 1.04 ± 0.036 | 1.01 ± 0.042 | 1.01 ± 0.034
SCC90 HEADNECK | 0.993 ± 0.034 | 1 ± 0.02 | 1.07 ± 0.17 | 1.201 ± 0.0059 | 0.966 ± 0.13 | 0.764 ± 0.045 | 0.924 ± 0.069 | 0.867 ± 0.1 | 1 ± 0.084 | 1.01 ± 0.11 | 1.02 ± 0.052 | 1.1 ± 0.023 | 1.02 ± 0.046 | 1.12 ± 0.21 | 1.06 ± 0.23 | 1.14 ± 0.046
SUM44 BREAST | 1.03 ± 0.19 | 1.04 ± 0.21 | 1.08 ± 0.23 | 1.07 ± 0.15 | 0.958 ± 0.012 | 0.934 ± 0.059 | 0.943 ± 0.064 | 0.932 ± 0.083 | 1.07 ± 0.041 | 1.04 ± 0.015 | 1.06 ± 0.037 | 1.07 ± 0.023 | 1.07 ± 0.062 | 1.155 ± 0.0075 | 0.9687 ± 0.0055 | 0.994 ± 0.034
MHM BONE | 1.01 ± 0.028 | 0.999 ± 0.05 | 1.09 ± 0.014 | 1.06 ± 0.028 | 1.11 ± 0.023 | 1.13 ± 0.025 | 1.135 ± 0.0021 | 1.19 ± 0.059 | 0.97 ± 0.021 | 0.974 ± 0.032 | 1.03 ± 0.011 | 0.998 ± 0.011 | 1.027 ± 0.0053 | 1 ± 0.03 | 0.982 ± 0.055 | 0.975 ± 0.029
H23 LUNG | 1.04 ± 0.077 | 1.05 ± 0.052 | 1.14 ± 0.025 | 1.08 ± 0.033 | 1.24 ± 0.096 | 1.26 ± 0.088 | 1.18 ± 0.094 | 1.17 ± 0.1 | 0.939 ± 0.042 | 1.02 ± 0.032 | 0.973 ± 0.012 | 1.06 ± 0.078 | 0.997 ± 0.014 | 1.02 ± 0.038 | 1.02 ± 0.029 | 1 ± 0.032
SUM149 BREAST | 0.884 ± 0.092 | 0.895 ± 0.024 | 0.971 ± 0.057 | 0.833 ± 0.072 | 0.898 ± 0.053 | 0.786 ± 0.061 | 0.872 ± 0.071 | 0.833 ± 0.053 | 1.07 ± 0.059 | 1.14 ± 0.027 | 1.09 ± 0.035 | 1.12 ± 0.037 | 1.06 ± 0.14 | 1.11 ± 0.13 | 1.08 ± 0.081 | 1.05 ± 0.12
MFM223 BREAST | 1.11 ± 0.085 | 1.15 ± 0.12 | 1.08 ± 0.058 | 1.08 ± 0.056 | 0.798 ± 0.048 | 0.931 ± 0.15 | 0.9 ± 0.11 | 0.912 ± 0.13 | 1.14 ± 0.05 | 1.15 ± 0.036 | 1.1 ± 0.08 | 1.15 ± 0.027 | 1.15 ± 0.012 | 1.21 ± 0.06 | 1.19 ± 0.033 | 1.05 ± 0.079
ASKA SYNOVIAL | 1.13 ± 0.033 | 1.02 ± 0.11 | 1.145 ± 0.0067 | 1.15 ± 0.036 | 1.08 ± 0.08 | 0.988 ± 0.088 | 0.936 ± 0.083 | 0.864 ± 0.066 | 1.16 ± 0.063 | 1.17 ± 0.057 | 1.27 ± 0.088 | 1.16 ± 0.1 | 1.19 ± 0.017 | 1.2 ± 0.03 | 1.18 ± 0.03 | 1.04 ± 0.094
HSSYII SYNOVIAL | 0.907 ± 0.018 | 1 ± 0.033 | 0.973 ± 0.015 | 0.987 ± 0.052 | 0.9 ± 0.061 | 0.954 ± 0.029 | 0.874 ± 0.029 | 0.785 ± 0.036 | 0.917 ± 0.021 | 0.933 ± 0.033 | 1.01 ± 0.047 | 0.951 ± 0.045 | 0.915 ± 0.043 | 0.958 ± 0.037 | 0.899 ± 0.034 | 0.798 ± 0.021
HT1080 SOFT TISSUE | 1.02 ± 0.058 | 1.04 ± 0.032 | 1.06 ± 0.027 | 1.04 ± 0.011 | 0.991 ± 0.02 | 0.978 ± 0.027 | 0.98 ± 0.027 | 0.957 ± 0.027 | 1.05 ± 0.037 | 1.05 ± 0.023 | 1.02 ± 0.0067 | 1.03 ± 0.031 | 1.05 ± 0.024 | 1.02 ± 0.038 | 0.9943 ± 0.0058 | 0.946 ± 0.034
CHLA90 AUTONOMIC GANGLIA | 0.993 ± 0.057 | 1.01 ± 0.082 | 0.957 ± 0.036 | 1.09 ± 0.076 | 1.1 ± 0.055 | 1.14 ± 0.12 | 1.11 ± 0.016 | 1.09 ± 0.077 | 0.955 ± 0.039 | 1 ± 0.011 | 0.969 ± 0.054 | 0.932 ± 0.028 | 0.9353 ± 0.0021 | 0.94 ± 0.05 | 0.986 ± 0.031 | 0.952 ± 0.055
